Results as given in patent US20220000872A1, “METHOD OF ENHANCING IMMUNE-BASED THERAPY” (OncoTracker, Inc., priority 2018, published 2022).
“Also recorded” adds a separate entry of the source.

How the values were obtained:
multiple myeloma = details: combined with a thalidomide derivative such as lenalidomide and optionally a steroid or glucocorticoid; cited from earlier work
IL-2 gene expression [1] = assay: IL-2 gene expression in MMBM (Example 12); type: cell-based, human
Description: (§1) Bone marrow mononuclear cells (BMMCs) were collected from MM patients after obtaining IRB approval. Single-cell suspensions were prepared from human MM LAGλ-1A xenografts which had been grown in severe combined immunodeficient mice. HS-5 stromal and SUP-T1 T cells were purchased from ATCC. The cells were cultured and treated with or without RUX and then subjected to qRT-PCR, flow cytometric analysis, and western blot analysis. For qRT-PCR, total RNA was extracted and applied to cDNA synthesis, followed by qPCR. Gene expression was analyzed in MM BMMCs alone or co-cultured with stromal cells or T cells with or without Rux treatment (1 μM) in vitro.
(§2) Next, we tested whether B7-H3 blockade by Rux could potentially restore exhausted T cell activity against myeloma cells in MMBM.

B7-H3 gene expression = B7-H3 gene expression (qPCR) in MM BMMCs, U266 cells and THP-1 monocytes; type: cell-based, human; details: RUX 1 μM
Description: We further examined BMMCs from two MM patients (#s 2188 and 2935) treated with RUX (1 μM) for 24 hours. RUX reduced B7-H3 gene expression as measured using qPCR in BMMCs (FIG. 7B). We also analyzed BMMCs co-cultured with stromal cells. B7-H3 gene expression was increased 16-fold in BMMCs after these cells were co-cultured with stromal cells. […] We further determined the effect of RUX (1 μM) on gene expression of B7-H3 in the MM cell line U266 co-cultured with THP-1 monocytes (T) after 48 hours. RUX at 1 μM reduced B7-H3 expression in both U266 MM cells and THP-1 monocytes, cultured alone or co-cultured, compared to cell cultures not treated with RUX (FIG. 7D).

MM cells = assay: Dead MM cells by Trypan blue staining, BMMCs co-cultured with HS-5 stromal cells; type: cell-based, human; details: MM BMMCs co-cultured with HS-5
[2] = system: PD-L1 gene and protein expression; assay: PD-L1 gene and protein expression in MM tumor cells alone or co-cultured with stromal cells (Example 11); type: cell-based, human; details: concentration dependent pattern
Description: BM mononuclear cells (MCs) and serum were collected from MM patients and healthy subjects after obtaining IRB approval. Single-cell suspensions were prepared from human MM LAGκ-1A xenografts which had been grown in the mice. The cells were cultured and treated with or without RUX and then were determined by qPCR, flow cytometric analysis, ELISA, and western blot.
We further investigated the effects of RUX on PD-L1 and PD-L2 expression in primary and stromal cells from MM patients' BM samples in vitro. […] We then determined whether RUX can augment the anti-MM effects of T-cells in vitro. […] To evaluate the efficacy of drugs in vivo, severe combined immune deficient mice implanted with the human MM xenograft LAGκ-2 were treated with RUX (30 mg/kg).

CD8 gene expression = CD8 gene expression in MMBM (Example 12); type: cell-based, human
Description: as §1, §2

PD-L2 gene expression = PD-L2 gene expression (qPCR) in MM BMMCs co-cultured with THP-1 monocytes; type: cell-based, human; details: BMMCs from MM patient #3041 co-cultured with THP-1 monocytes, RUX 1 μM, 48 hours
Description: MM patient #3041 bone marrow mononuclear cells were co-cultured with THP-1 monocytes with or without RUX (from […] to 10 μM) for 48 hours.
Next, we investigated the effects of ruxolitinib (RUX) on PD-L1 and PD-L2 gene expression in MM bone marrow mononuclear cells (BMMCs) co-cultured with THP-1 monocytes. THP-1 monocytes co-cultured with primary BMMCs from MM patient #3041 were grown in the presence or absence of RUX (1 μM).

IL-2 gene expression [3] = assay: IL-2 gene expression (qPCR) in BMMCs from three MM patients; type: cell-based, human; details: RUX 1 μM, 24 hours
Description: BMMCs from three MM patients were treated with RUX (1 μM) for 24 hours with or without co-culture with T cells in vitro. IL-2 gene expression levels were determined using qPCR RUX induced IL-2 expression in BMMCs alone and those co-cultured with T cells (SUP-T1, ATCC) in Trans-well culture dishes.

SMILES: N#CC[C@H](C1CCCC1)n1cc(-c2ncnc3[nH]ccc23)cn1 [RUX, ruxolitinib]
- efficacy in treating hematological malignancies (in particular, multiple myeloma) (multiple myeloma): effective
- IL-2 gene expression in BM cocultured with T cells (IL-2 gene expression [1]; SUP-T1): elevated
- IL-2 gene expression in MMBM with lower plasma percentages (IL-2 gene expression [1]; plasma cell percentage <30%): increase
- increase of IL-2 gene expression in MMBM with higher plasma cell percentages (IL-2 gene expression [1]; plasma cell percentage >70%): not
- B7-H3 gene expression in BMMCs (B7-H3 gene expression; BMMCs from two MM patients (#2188, #2935), 24 hours, qPCR): reduced; also recorded: down-regulates
- B7-H3 expression in BMMCs co-cultured with stromal cells (B7-H3 gene expression): markedly reduced; also recorded: decreases
- B7-H3 expression in U266 MM cells (B7-H3 gene expression; cultured alone or co-cultured with THP-1, 48 hours): reduces
- B7-H3 expression in THP-1 monocytes (B7-H3 gene expression; cultured alone or co-cultured with U266, 48 hours): reduced
- percentage of dead MM cells (MM cells): increased in a concentration dependent fashion
- PD-L1 gene and protein expression in MM tumor cells [2]: markedly reduced
- CD8 gene expression in BM cocultured with T cells (CD8 gene expression; SUP-T1): elevated
- CD8 gene expression in MMBM with lower plasma percentages (CD8 gene expression; plasma cell percentage <30%): increase
- PD-L2 gene expression in MM BMMCs (PD-L2 gene expression): marked decrease; also recorded: inhibits
- IL-2 expression in BMMCs alone (IL-2 gene expression [3]): induced; also recorded: increased
- IL-2 expression in BMMCs co-cultured with T cells (IL-2 gene expression [3]; SUP-T1 in Trans-well dishes): induced
